Read-outs that look alike come from different tables or passages of the source.
How the values were obtained:
[1] = Procedure: 3 μM of each probe was applied to serial two fold dilutions of the insoluble carbohydrate of which the concentration shown here are 5 mg/ml (_.), 2.5 mg/ml (. . . ), 1.25 mg/ml (__) and 0 mg/ml (_). The excitation spectrum of the probe was analyzed for wavelengths 300-500 nm with emission read at 545 nm.
(§1) 3 μM of each probe was applied to serial two fold dilutions of the insoluble carbohydrate. Respective probes were excited at wavelengths unique to each probe (specified in figure), and emission was read at 545 nm.
(§2) Serial dilutions of carbohydrate suspensions were prepared in dH2O. Concentrations ranging from 10 to 0.039 mg/ml was used for β-1,3-glucan, cellulose and chitin, whereas 5 to 0.019 mg/ml was used for sodium alginate, glucose, amylose, glycogen, cellulobiose, heparin, chondroitin sulfate A. 3 μM of each LCO probe was added to 1 ml aliquots of each concentration of carbohydrate, after which 100 μl was dispensed in triplicates into 96 well plates. Excitation spectra were collected by exciting the sample from 300 to 500 nm and detecting emission at 545 nm. Detection of carbohydrate is concluded when there is a reproducible change in λmax and/or RFU intensity with reference to the negative control. Data from three concentrations, as well as the negative control are shown for each carbohydrate as specified in respective figure.
(§3) The excitation wavelength (emission detected at 545 nm) selected for each LCO is either (1) the λmax, or (2) the excitation wavelength which suffers the lowest background. A linear regression analysis is performed to determine the relationship between the carbohydrate concentration and RFU.

[2] = for RFU change (Correlation analysis): probe-specific excitation λ, emission 545 nm; for carbohydrate can be detected and/or differentiated by the LCO: conclusion from change in signal magnitude and/or shift in λmax
Procedure: (§4) 3 μM of each probe was applied to serial two fold dilutions of the carbohydrate of which the concentration shown here are 5 mg/ml (_.), 2.5 mg/ml (. . . ) 1.25 mg/ml (__) and 0 mg/ml (_). The excitation spectrum of the probe was analyzed for wavelengths 300-500 nm with emission read at 545 nm.
(§5) 3 μM of each probe was applied to serial two fold dilutions of the carbohydrate. Respective probes were excited at wavelengths unique to each probe (specified in figure), and emission was read at 545 nm.
as §2, §3

[3] = for RFU change (Correlation analysis): probe-specific excitation λ, emission 545 nm; for carbohydrate can be detected and/or differentiated by the LCO: conclusion from change in signal magnitude and/or shift in λmax; remark: listed apart in the source
Procedure: (§6) The excitation spectrum of the probe was analyzed for wavelengths 300-500 nm with emission read at 545 nm.
as §1, §2, §3

[4] = remark: listed apart in the source
Procedure: as §6, §5, §2, §3

[5] = for RFU change (Correlation analysis): probe-specific excitation λ, emission 545 nm; for carbohydrate can be detected and/or differentiated by the LCO: conclusion from change in signal magnitude and/or shift in λmax; for Gradient Parameters (gradient of regression line) / Linear relationship / Quality of Gradient: linear regression
Procedure: 3 μM of each probe was applied to serial two fold dilutions of the carbohydrate of which the concentration shown here are 5 mg/ml (_.), 2.5 mg/ml (. . . ), 1.25 mg/ml (__) and 0 mg/ml (_). The excitation spectrum of the probe was analyzed for wavelengths 300-500 nm with emission read at 545 nm.
as §5, §2, §3

[6] = remark: listed apart in the source
Procedure: as §4
3 μM of each probe was applied to serial two fold dilutions of the carbohydrate. Respective probes were excited at wavelengths unique to each probe (specified in figure), and emission was read at 545 nm. […] The mean increase in signal (_) with [Glucose] and the fitted regression line (__) is shown.
as §2, §3

[7] = sodium alginate concentration vs RFU, linear regression
[8] = Cellulobiose 5-0.019 mg/ml, 3 μM probe, spectral analysis, Excitation 300-500, Emission 545
[9] = amylose concentration vs RFU, linear regression
[10] = cellulobiose concentration vs RFU, linear regression
[11] = Chitin 10-[…], 3 μM probe, spectral analysis, Excitation 300-500, Emission 545
[12] = cellulose concentration vs RFU, linear regression
[13] = chitin concentration vs RFU, linear regression
[14] = β-1,3-glucan concentration vs RFU, linear regression
[15] = Chondroitin Sulfate A 5-0.019 mg/ml, 3 μM probe, spectral analysis, Excitation 300-500, Emission 545
[16] = Chondroitin Sulfate A concentration vs RFU, linear regression
[17] = Glycogen 5-0.019 mg/ml, 3 μM probe, spectral analysis, Excitation 300-500, Emission 545
[18] = glucose concentration vs RFU, linear regression

O=C([O-])CC[C@H](NC(=O)Cc1cc(-c2cccs2)sc1-c1ccc(-c2sc(-c3cccs3)cc2CC(=O)N[C@@H](CCC(=O)[O-])C(=O)[O-])s1)C(=O)[O-].[Na+].[Na+].[Na+].[Na+] [pHTA-Glu, penta Hydrogen Thiophene Acetic acid Glutamic acid]
RFU change (Correlation analysis) ([1]; Sodium alginate 5-0.019 mg/ml, 3 μM probe, probe-specific excitation λ, emission 545 nm): Increases | RFU change (Signal deviation with increasing [Carbohydrate]) ([1]; Sodium alginate 5-0.019 mg/ml, 3 μM probe, spectral analysis, Excitation 300-500, Emission 545): Increases | Gradient Parameters (gradient of regression line) [1, 7]: 88.7 ± 62.0 | Quality of Gradient [1, 7]: Horizontal | Sensitivity ([1]; to sodium alginate): No | RFU change (Correlation analysis) ([2]; Amylose 5-0.019 mg/ml, 3 μM probe): Increases | RFU change (Signal deviation with increasing [Carbohydrate]) ([2]; Amylose 5-0.019 mg/ml, 3 μM probe, spectral analysis, Excitation 300-500, Emission 545): Increases | carbohydrate can be detected and/or differentiated by the LCO ([2]; Amylose): can be detected and/or differentiated | RFU change (Correlation analysis) ([2]; Cellulobiose 5-0.019 mg/ml, 3 μM probe): Increases | RFU change (Signal deviation with increasing [Carbohydrate]) [2, 8]: Increases | λmax change [2, 8]: No change | carbohydrate can be detected and/or differentiated by the LCO ([2]; Cellulobiose): can be detected and/or differentiated | Gradient Parameters (gradient of regression line) [2, 9]: 493.6 ± 346.9 | Quality of Gradient [2, 9]: Horizontal | Gradient Parameters (gradient of regression line) [2, 10]: 178.6 ± 35.1 | Linear relationship [2, 10]: Significant | Quality of Gradient [2, 10]: Positive | Sensitivity ([2]; to amylose): Yes | Sensitivity ([2]; to cellulobiose): Yes | RFU change (Correlation analysis) ([3]; Cellulose 10-[…], 3 μM probe): Decrease | RFU change (Signal deviation with increasing [Carbohydrate]) ([3]; Cellulose 10-[…], 3 μM probe, spectral analysis, Excitation 300-500, Emission 545): Unclear | RFU change (Correlation analysis) ([3]; Chitin 10-[…], 3 μM probe): Increases | RFU change (Signal deviation with increasing [Carbohydrate]) [3, 11]: Increases | λmax change [3, 11]: Redshift | carbohydrate can be detected and/or differentiated by the LCO ([3]; Chitin): can be detected and/or differentiated | Gradient Parameters (gradient of regression line) [3, 12]: −139.6 ± 344.8 | Quality of Gradient [3, 12]: Horizontal | Gradient Parameters (gradient of regression line) [3, 13]: 2824 ± 156.6 | Linear relationship [3, 13]: Significant | Quality of Gradient [3, 13]: Positive | Sensitivity ([3]; to cellulose): No | Sensitivity ([3]; to chitin): Yes | Sensitivity ([3]; to β-1,3-glucan): Yes | carbohydrate can be detected and/or differentiated by the LCO ([3]; β-1,3-Glucan): can be detected and/or differentiated | RFU change (Correlation analysis) ([3]; β-1,3-glucan 10-[…], 3 μM probe): Decrease | RFU change (Signal deviation with increasing [Carbohydrate]) ([3]; β-1,3-glucan 10-[…], 3 μM probe, spectral analysis, Excitation 300-500, Emission 545): Decrease | Gradient Parameters (gradient of regression line) [3, 14]: −898.7 ± 117.0 | Quality of Gradient [3, 14]: Negative | RFU change (Correlation analysis) ([4]; Chondroitin Sulfate A 5-0.019 mg/ml, 3 μM probe, probe-specific excitation λ, emission 545 nm): Unclear | RFU change (Signal deviation with increasing [Carbohydrate]) [4, 15]: Decreases | λmax change [4, 15]: No change | Gradient Parameters (gradient of regression line) [4, 16]: 125.3 ± 156.5 | Quality of Gradient [4, 16]: Horizontal | Sensitivity ([4]; to Chondroitin Sulfate A): No | RFU change (Correlation analysis) ([5]; Glycogen 5-0.019 mg/ml, 3 μM probe): Decreases | RFU change (Signal deviation with increasing [Carbohydrate]) [5, 17]: Decreases | λmax change [5, 17]: Redshift | carbohydrate can be detected and/or differentiated by the LCO ([5]; Glycogen): can be detected and/or differentiated | RFU change (Correlation analysis) ([5]; Heparin 5-0.019 mg/ml, 3 μM probe): Unclear | RFU change (Signal deviation with increasing [Carbohydrate]) ([5]; Heparin 5-0.019 mg/ml, 3 μM probe, spectral analysis, Excitation 300-500, Emission 545): Unclear | carbohydrate can be detected and/or differentiated by the LCO ([5]; Heparin): can be detected and/or differentiated | Gradient Parameters (gradient of regression line) ([5]; glycogen concentration vs RFU): −349.2 ± 96.7 | Linear relationship ([5]; glycogen concentration vs RFU): Significant | Quality of Gradient ([5]; glycogen concentration vs RFU): Negative | Gradient Parameters (gradient of regression line) ([5]; heparin concentration vs RFU): −12.4 ± 108 | Linear relationship ([5]; heparin concentration vs RFU): Not Significant | Quality of Gradient ([5]; heparin concentration vs RFU): Horizontal | Sensitivity ([5]; to glycogen): Yes | Sensitivity ([5]; to heparin): No | RFU change (Correlation analysis) ([6]; Glucose 5-0.019 mg/ml, 3 μM probe, probe-specific excitation λ, emission 545 nm): Decreases | RFU change (Signal deviation with increasing [Carbohydrate]) ([6]; Glucose 5-0.019 mg/ml, 3 μM probe, spectral analysis, Excitation 300-500, Emission 545): Decreases | carbohydrate can be detected and/or differentiated by the LCO ([6]; Glucose, conclusion from change in signal magnitude and/or shift in λmax): can be detected and/or differentiated | Gradient Parameters (gradient of regression line) [6, 18]: −116.0 ± 41.0 | Linear relationship [6, 18]: Significant | Quality of Gradient [6, 18]: Negative | Sensitivity ([6]; to glucose): Yes

From patent US9958439B2, “Carbohydrate detection” (RICHTER LIFE SCIENCE DEVELOPMENT AB, priority 2012, dated 2018)
